Test results: paper PMC3152332 (Nucleic Acids Research, 2011)

Key:
[1] = target: Ec-Mtq2-Trm112 (Encephalitozoon cuniculi, UniProt Q8SRR4); settings: SAM co-purified with the complex; contacts only Mtq2 residues
[2] = target: Hs-Mtq2 + Hs-Trm112 (Homo sapiens, UniProt Q9Y5N5); settings: labelled compound; with Hs-Trm112; methylation buffer, 30 °C, 15 min
[3] = target: yeast Mtq2-Trm112 (Saccharomyces cerevisiae, UniProt Q03920); settings: labelled compound; eRF1, eRF3 and GTP present
yeast Mtq2-Trm112, sequence (Q03920 whole entry): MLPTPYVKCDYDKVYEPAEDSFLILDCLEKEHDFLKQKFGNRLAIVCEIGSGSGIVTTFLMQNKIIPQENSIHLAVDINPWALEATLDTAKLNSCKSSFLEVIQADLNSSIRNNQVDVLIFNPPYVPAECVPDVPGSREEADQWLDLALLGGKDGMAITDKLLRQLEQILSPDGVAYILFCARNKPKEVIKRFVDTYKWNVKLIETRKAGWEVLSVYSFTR
yeast Mtq2-Trm112, sequence (P53738 whole entry partner): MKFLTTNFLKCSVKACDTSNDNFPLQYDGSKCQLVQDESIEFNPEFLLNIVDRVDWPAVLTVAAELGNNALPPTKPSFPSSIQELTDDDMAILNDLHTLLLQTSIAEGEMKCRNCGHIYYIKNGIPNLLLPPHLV

Ec-Mtq2-Trm112, sequence (Q8SRR4 1-164): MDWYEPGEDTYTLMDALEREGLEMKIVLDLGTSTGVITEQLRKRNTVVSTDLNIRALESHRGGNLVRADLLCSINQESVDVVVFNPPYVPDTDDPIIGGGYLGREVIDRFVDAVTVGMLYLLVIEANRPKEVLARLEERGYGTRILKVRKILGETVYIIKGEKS
Ec-Mtq2-Trm112, sequence (Q8SUP0 1-125 partner): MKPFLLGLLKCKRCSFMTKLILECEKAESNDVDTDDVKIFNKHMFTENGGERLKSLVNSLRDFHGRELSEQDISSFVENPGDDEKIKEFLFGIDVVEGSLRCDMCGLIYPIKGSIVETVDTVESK
Hs-Mtq2 + Hs-Trm112, sequence (Q9Y5N5 whole entry): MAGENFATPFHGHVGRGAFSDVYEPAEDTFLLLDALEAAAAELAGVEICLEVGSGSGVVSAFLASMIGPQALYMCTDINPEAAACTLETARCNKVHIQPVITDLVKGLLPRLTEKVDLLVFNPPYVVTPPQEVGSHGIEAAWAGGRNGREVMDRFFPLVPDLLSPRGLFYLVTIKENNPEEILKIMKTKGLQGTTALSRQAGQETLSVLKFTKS
Hs-Mtq2 + Hs-Trm112, sequence (Q9UI30 whole entry partner): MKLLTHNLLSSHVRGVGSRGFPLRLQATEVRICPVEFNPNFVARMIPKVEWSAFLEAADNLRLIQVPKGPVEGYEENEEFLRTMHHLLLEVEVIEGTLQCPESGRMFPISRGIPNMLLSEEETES

Structure (SMILES): C[S+](CC[C@H](N)C(=O)O)C[C@H]1O[C@@H](n2cnc3c(N)ncnc32)[C@H](O)[C@@H]1O (stereo partly drawn) [SAM]
- X-ray crystal structure, 2.1 Å [1]: an unambiguous electron density corresponding to a SAM molecule is present in its expected binding site
- SAM-binding activity [2]: Incubation of this protein with an equimolar amount of Hs-Trm112 resulted in restoration of SAM-binding activity
- [3H]SAM methylation of eRF1, initial velocity [3]: incubating eRF1, eRF3 and GTP with Mtq2-Trm112 complex in presence of [3H] SAM
